Test results from US20030069194A1, “Inhibition of viral replication by targeting RNA-DNA complexes” (priority 2001, published 2003).
Structures can show the parent of a compound that is named as a salt.

Legend:
[1] = system: 18C-18R duplex (RNase H substrate of HIV-1 RT); test: RT-induced RNase H cleavage of the 18C-18R duplex (gel assay); type: biochemical; conditions: for hierarchy of the extent of inhibition of RT-induced cleavage: 18C-18R duplex, aminoglycosides 312.5 μM, FIG. 1b, 1d; for inhibition of RT-induced cleavage at the primary site: FIG. 1c
Description: The first model oligonucleotide was a 18mer chimeric duplex (18C-18R). 18C-18R mimics a RNase H substrate during minus-strand strong-stop synthesis. (FIG. 1a). Mueller, U. et al. Crystal structure of an eight-base pair duplex containing the 3′-DNA RNA-5′ junction formed during initiation of minus-strand synthesis of HIV replication, Biochemistry 37,12005-12011 (1998). […] Note that RT cleaves the RNA strand (18R) opposite the chimeric RNA-DNA strand (18C) at three sites (FIGS. 1a, b). The primary cleavage site lies between base positions +1 and +2 (counting from the RNA-DNA junction in the 5′ direction on the cleaved RNA strand). Two other minor cleavage sites lie between positions +3 and +4 and between positions −1 and +1, with the former site being cleaved to a greater extent than the latter site. Götte, M. et al., HIV-1 Reverse transcriptase-associated RNase H cleaves RNA/RNA in arrested complexes: Implications for the mechanism by which RNase H discriminates between RNA/RNA and RNA/DNA, EMBO J. 14, 833-841 (1995).
Recombinant HIV-1 RT p66 was isolated from Escherichia coli JM 109. Pandey, V. N. et al, Role of methionine 184 of human immunodeficiency virus type-1 reverse transcriptase in the polymerase function and fidelity of DNA synthesis, Biochemistry 35, 2168-2179 (1996). The 18C and 18R oligonucleotides were purchased from Dharmacon Research, Inc. (Lafayette, Colo.). The 18D oligonucleotide was obtained from Integrated DNA Technologies, Inc. (Coralville, Iowa). Neomycin trisulfate trihydrate, the free base of tobramycin, paromomycin sulfate, and kanamycin B sulfate were obtained from Fluka, while kanamycin A monosulfate and ribostamycin sulfate dihydrate were obtained from Sigma.
The RNase H activity of RT was assayed in a 10 μl reaction mixture containing 10 mM PIPES (pH 6.0) and 5 mM MgCl2. Ten pmol of either 18C or 18R were ^32P-labeled at the 5′ end using T4 polynucleotide kinase. For the cleavage experiments, different aminoglycosides were mixed with 0.5 μM of target duplex. A small amount of RT, 0.1 μg, was then added to initiate the cleavage reaction. After incubation at 37° C. for 30 min, the reaction was stopped by addition of 3 M urea containing a mixture of bromophenol blue and xylene cyanol. Denaturation of the 18C-18R duplex required the addition of 5 M urea as well as heating at 95° C. for 5 min prior to gel loading. The cleavage products were resolved in a 10% polyacrylamide gel containing 8 M urea. The gels were subsequently analyzed using a phosphoimager (Molecular Dynamics, Inc.).

18C-18D duplex = test: UV melting (thermal denaturation) and ΔTm analysis, 18C-18D duplex; type: binding, HIV-1; conditions: for Ka (ΔTm-derived association constant): extrapolated to 25° C.; for enhancement of thermal stability of the duplex (ΔTm): 18C-18D, drug to duplex ratio (rdup) 3.0, FIG. 3b
Method: All UV absorbance experiments were conducted on an AVIV Model 14DS Spectrophotometer (Aviv Associates; Lakewood, N.J.) equipped with a thermoelectrically controlled cell holder. A quartz cell with a 1 cm pathlength was used for all the absorbance studies. Absorbance versus temperature profiles were measured at 274 nm with a 6 sec averaging time. The temperature was raised in 0.5° C. increments, and the samples were allowed to equilibrate for 1 min at each temperature setting. In these thermal denaturation studies, 18C-18R and 18C-18D solutions were […] in duplex and contained aminoglycoside at concentrations ranging from 0 to 12 μM. The duplex solutions were preheated for 5 min at 85° C. and then cooled to room temperature prior to addition of the drug. The buffer solutions for the UV melting experiments contained 10 mM PIPES (pH 6.0) and 5 mM MgCl2. For each optically detected transition, the melting temperature (Tm) was determined. Marky, L. A. & Breslauer, K. J. Calculating thermodynamic data for transitions of any molecularity from equilibrium melting curves, Biopolymers 26, 1601-1620 (1987).
The ΔTm method described below was used to derive aminoglycoside-duplex association constants (Ka). Measured aminoglycoside-induced changes in the thermal stability of the host duplexes (FIG. 3) were used to estimate the apparent drug-duplex association constants at Tm (KTm) from the following expression (Crothers, D. M. Statistical thermodynamics of nucleic acid melting transitions with coupled binding equilibria, Biopolymers 10, 2147-2160 (1971)): [formula]
In this expression, TmO and Tm are the melting temperatures of the drug-free and drug-bound duplex, respectively, n is the number of drug molecules bound per duplex, ΔHdup is the enthalpy change for the melting of the duplex in the absence of bound drug, and L is the free drug concentration at Tm (which can be estimated by one half the total drug concentration). Values of ΔHdup for the 18C-18R and 18C-18D duplexes were determined from the shapes of their UV melting profiles using the following relationship (Marky, L. A. & Breslauer, K. J. Calculating thermodynamic data for transitions of any molecularity from equilibrium melting curves, Biopolymers 26, 1601-1620 (1987)): [formula]
where α is the fraction of single strand. This calculation yielded ΔHdup values of 157.8 kcal/mol for the 18C-18R duplex and 130.3 kcal/mol for the 18C-18D duplex. For meaningful comparisons, the calculated apparent binding constants at Tm should be extrapolated to a common reference temperature using the standard relationship: [formula]
where ΔHb is the enthalpy of drug binding.

Compound	hierarchy of the extent of inhibition of RT-induced cleavage [1]	Ka (ΔTm-derived association constant) (18C-18D duplex; 18C-18D duplex)	enhancement of thermal stability of the duplex (ΔTm) (18C-18D duplex) [°C]	inhibition of RT-induced cleavage at the primary site ([1]; neomycin to binding site ratio of 1 (stoichiometric concentration)) [%]	inhibition of RT-induced cleavage at the primary site ([1]; neomycin to binding site ratio of 5)	difference in affinity, neomycin greater than paromomycin (18C-18D duplex; 18C-18D duplex) [fold]
NC[C@@H]1O[C@H](O[C@H]2[C@@H](O)[C@H](O[C@@H]3[C@@H](O)[C@H](N)C[C@H](N)[C@H]3O[C@H]3O[C@H](CO)[C@@H](O)[C@H](O)[C@H]3N)O[C@@H]2CO)[C@H](N)[C@@H](O)[C@@H]1O [paromomycin, paromomycin sulfate]	neomycin>paromomycin>tobramycin>kanamycin B>ribostamycin>>kanamycin A	(1.9 ± 0.8) × 10^5 M^−1	1.1			
Neomycin trisulfate trihydrate	neomycin>paromomycin>tobramycin>kanamycin B>ribostamycin>>kanamycin A	(1.7 ± 0.3) × 10^6 M^−1	4.1	80	total inhibition	9
